Results on ten molecules are retold here after patent publication US5334596A, “Fibrinogen receptor antagonists” (Merck & Co., Inc., priority 1993, dated 1994).

For orientation: IC50 means the concentration that gives 50% inhibition.

The subject of test [1] is gel-filtered human platelets. The test is described as follows: ADP-stimulated platelet aggregation (gel-filtered human platelets, fibrinogen, Ca2+). Type of test: cell-based. The conditions noted are these: gel-filtered human platelets 2×10^8 per ml, fibrinogen 100 ug/ml, Ca2+ 1 mM, 10 mM ADP, 37° C., read-out: IC50 (inhibition of platelet aggregation by 50% relative to a control lacking the compound). The procedure: Platelet aggregation is measured at 37° C. in a Chronolog aggregometer. The reaction mixture contains gel-filtered human platelets (2×10^8 per ml), fibrinogen (100 micrograms per ml (ug/ml)), Ca^2+ (1 mM), and the compound to be tested. The aggregation is initiated by adding […] ADP 1 minute after the other components are added. The reaction is then allowed to proceed for at least 2 minutes. The extent of inhibition of aggregation is expressed as the percentage of the rate of aggregation observed in the absence of inhibitor. The IC50 is the dose of a particular compound inhibiting aggregation by 50% relative to a control lacking the compound.
In addition to the following preparative procedures, several examples of in-vitro bioactivity of compounds within the scope of the present invention are indicated. To illustrate, one test which is used to evaluate fibrinogen receptor antagonist activity is based on evaluation of inhibition of ADP-stimulated platelets. Aggregation requires that fibrinogen bind to and occupy the platelet fibrinogen receptor site. Inhibitors of fibrinogen binding inhibit aggregation. In the ADP-stimulated platelet aggregation assay used to determine inhibition associated with the compounds claimed in the instant invention, human platelets are isolated from fresh blood, collected into acid citrate/dextrose by differential centrifugation followed by gel filtration on Sepharose 2B in divalent ion-free Tyrode's buffer (pH 7.4) containing 2% bovine serum albumin.

A further test deals with gp IIb/IIIa complex. Conditions: literature, background section; cited from earlier work.
Test [2] deals with cell attachment-promoting effects of fibronectin and vitronectin. The conditions noted are these: background section; cited from earlier work.

For `O=C(O)CCNC(=O)c1cc2c(s1)C(=O)N(CCC1CCNCC1)C2=O` [1-6, 5-(2-Carboxyethyl)carboxamide-[N-2-(4-Piperidinyl)ethyl]-2,3-thiophenedicarboximide], the IC50 in test [1] was 5000 nM.
Still for that read-out and setting: the result for `CCCCS(=O)(=O)N[C@@H](CNC(=O)c1cc2c(s1)CCN(CCC1CCNCC1)C2=O)C(=O)O` [2-9, 2-[3-(2(S)-n-butylsulfonylamino)propionic acid]carboxamide-4-oxo-5-[2-(4-piperidinyl)ethyl]-4,5,6,7-tetrahydro[3,2-c]pyridine] reads 8 nM; that for `CCCCS(=O)(=O)N[C@@H](CNC(=O)c1csc2c1C(=O)N(CCC1CCNCC1)CC2)C(=O)O` [2-11, 3-[3-(2(S)-n-Butylsulfonylamino)propionic acid]carboxamide-4-oxo-5-[2-(4-piperidinyl)ethyl]-4,5,6,7-tetrahydro[3,2-c]pyridine], 33000 nM.
Take `O=C(NC[C@H](NS(=O)(=O)c1ccccc1)C(=O)O)c1cc2c(s1)CCN(CCC1CCNCC1)C2=O` [2-14, 2-[3-(2(S)-Phenylsulfonylamino)propionic acid]carboxamide-4-oxo-5-[2-(4-piperidinyl)ethyl]-4,5,6,7-tetrahydro[3,2-c]pyridine]: the IC50 in test [1] is 8 nM.
Still for that read-out and setting: next, `O=C(NCc1ccccc1)N[C@@H](CNC(=O)c1cc2c(s1)CCN(CCC1CCNCC1)C2=O)C(=O)O` [2-17, 2-[3-(2(S)-benzylureido)propionic acid]carboxamide-4-oxo-5-[2-(4-piperidinyl)ethyl]-4,5,6,7-tetrahydro[3,2-c]pyridine]: 25 nM; `C[C@H](CC(=O)O)NC(=O)c1cc2c(s1)CCN(CCC1CCNCC1)C2=O` [2-21, 2-[3-(3(R)-Methyl)propionic acid]carboxamide-4-oxo-5-[2-(4-piperidinyl)ethyl]-4,5,6,7-tetrahydrothieno[3,2-c]pyridine]: 220 nM; `O=C(O)CCNC(=O)c1cc2c(s1)CCN(CCC1CCNCC1)C2=O` [3-3, 2-[3-(Propionic acid)]carboxamide-4-oxo-5-[2-(piperidinyl)]ethyl-4,5,6,7-tetrahydrothieno[3,2-c]pyridine]: 150 nM.
As to `O=C(O)CCCC(=O)c1cc2c(s1)CCN(CCC1CCNCC1)C2=O` [4-3], in test [1], the IC50 worked out at 260 nM.
In the case of Echistatin, in the test with gp IIb/IIIa complex, the “affinity for the gp IIb/IIIa complex” value is listed as “high affinity”.
Take “arginine-glycine-aspartic acid [Arg-Gly-Asp]”: the “activity of the tripeptide” value in test [2] is given as “low activity”.
